Consider seven compounds from patent EP0308983A2, “NMR imaging with Mn(II) coordination compositions” (priority 1987, dated 1989).

Values joined by “and” are separate entries in the source; they are usually repeats but may differ in a detail not shown here. Equal values may be shown once. Read-outs that look alike come from different tables or passages of the source.

Data set [1] in a line: Plasma clearance: plasma T₁ and T₂ times after injection. The format is in vivo. The settings on record: rabbit, 0.1 mmole/kg; for plasma T₁ / plasma T₂: 0.15 T.
Protocol: A dose of 0.1 mmole/kg of GdDTPA was injected into a rabbit and blood samples were drawn at 10 min intervals for 50 min. The blood was centrifuged, and the plasma T₁ and T₂ times were measured at 0.15 T with a RADX PROTON SPIN ANALYZER (Houston, TX).
Data set [2] concerns test population of animals. Particulars: for LD₅₀: Table A, species and unit not given; for Safety Factor: in vivo.
Data set [3] in a line: Dose needed to lower blood or plasma T₁ to 200 msec at 0.15 T.
How the values of data set [4] were obtained: Three buffers were tested for suitability.
One part of the solution of the title compound, synthesized according to Example 35, was added to one part of a US National Bureau of Standard buffer solution for pH 4.0 (American Scientific Products; Phthalate reference buffer).

The nature of data set [5]: Paramagnetic relaxation properties in water at 10 MHz (0.15T), RADX spin analyzer. The format is physicochemical. Particulars: 10 MHz (0.15T); for spin-lattice (T₁) relaxation value / spin-spin (T₂) relaxation value: 37°C, triplicate, mean +/- SD; for millimolar relaxivity for T₁ / millimolar relaxivity for T₂: in water; for millimolar relaxivity for T₁: calculated from T₁ and concentration; for millimolar relaxivity for T₂: calculated from T₂ and concentration. As for the experimental part:
The paramagnetic relaxation properties of [manganese(II)·(H₂O)₂·(L-alanine)₂]⁺²(Cl₂)⁻² in water were measured at 10 MHz (0.15T) with a spin analyzer (RADX; Houston, TX) at 37°C. After thermal equilibrium, the spin-lattice (T₁) and spin-spin (T₂) relaxation values were measured in triplicate.
The paramagnetic relaxation of the title compound in water was measured at 10 MHz (0.15T) with a spin analyzer (RADX; Houston, TX). After thermal equilibrium, the spin-lattice (T₁) and spin-spin (T₂) relaxation values were measured.
Relaxivity was measured at 10 MHz (0.15T) as described in Example 10.
The relaxivity of the title compound was performed at 0.15 T (10 MHz) with a RADX Spin Analyzer (Houston, TX) at 37°C.

Data set [6] can be described thus: Paramagnetic relaxation properties in human plasma at 37°C. Particulars: for T₂ value / T₁ value / R₁ / R₂ / T₁ changed by (repeat measurement) / T₂ changed by (repeat measurement): 37°C; for T₁ value: triplicate; for T₁ changed by (repeat measurement) / T₂ changed by (repeat measurement): repeat measurement 80 minutes later; for T₂ relaxivity in plasma, fold greater than GdDTPA: versus GdDTPA; for T₁ relaxivity in plasma, fold greater than GdDTPA: versus gadolinium diethylenetriaminepentaacetic acid chelate (GdDTPA). The format is physicochemical.

Where [7] appears, read: one part + one part carbonate pH reference buffer pH 10.0, the pH was 10.45.
The mark [8] stands for this setting: one part + one part phosphate pH reference buffer pH 7.0, the pH was 7.63.
[9] abbreviates: one part solution + one part phthalate reference buffer pH 4.0, the pH was 4.69.
[10] abbreviates: dose needed to lower T₁ from 1500 to 200 msec at 0.15 T, unit not given.

In the case of `O=C([O-])CN(CCN(CC(=O)[O-])CC(=O)O)CCN(CC(=O)[O-])CC(=O)O.[Gd+3]` [GdDTPA, gadolinium diethylenetriaminepentaacetic acid chelate, reference compound], the “time for which the plasma T₁ was maintained below 300” value in data set [1] was 10 min. The “plasma T₁” value in data set [1] (0 min (baseline)) was 1380 ms; in data set [1] (10 min) it was 259 ms and 269 ms; in data set [1] (20 min) it was 349 ms; in data set [1] (30 min), 348 ms; in data set [1] (40 min), 352 ms; in data set [1] (50 min) it was 340 ms. In addition, the “plasma T₂” value in data set [1] (0 min (baseline)) was found to be 588 ms; in data set [1] (10 min), 245 ms; in data set [1] (20 min), 287 ms; in data set [1] (30 min) it was 283 ms; in data set [1] (40 min) it was 270 ms; in data set [1] (50 min) it was 298 ms.

As for `CC(=O)[O-].CC(=O)[O-].NCC(=O)O.NCC(=O)O.[Mn+2]` [Mn(acetate)₂-bis-glycine], in data set [2], the LD₅₀ is given as 0.7 and the “Safety Factor” value stood at 70. Also, the “Plasma Dose, T₁ = 200” value in data set [3] turned out to be 0.10.

As to `CC(=O)[O-].CC(=O)[O-].NCC(=O)O.NCC(=O)O.O.O.[Mn+2]` [[Manganese(II)·(H₂O)₂·(Glycine)₂]Diacetate], in data set [4] (setting [7]), the “appearance of the solution” value is on record as “remained clear” and the “change of relaxivity over a 12 hour time period” value (from here on “change of relaxivity”) is “the relaxivity did not change”. Moreover, in data set [4] (setting [8]), the “appearance of the solution” value is reported as “remained clear” and the “change of relaxivity” value is given as “the relaxivity did not change”. In data set [4] (setting [9]), the “appearance of the solution” value is given as “remained clear” and the “change of relaxivity” value is given as “the relaxivity did not change”. Also, in data set [5] (1 mM solution in water), the “Relaxivity (mM⁻¹sec⁻¹) Spin-Lattice” value is 8.40 mM⁻¹ s⁻¹ and the “Relaxivity (mM⁻¹sec⁻¹) Spin-Spin” value was determined as 34.5 mM⁻¹ s⁻¹.

With `N[C@@H](Cc1ccccc1)C(=O)O.N[C@@H](Cc1ccccc1)C(=O)O.O.O.[Cl-].[Cl-].[Mn+2]` [[Manganese(II)·(H₂O)₂·(L-phenylalanine)₂]⁺²(Cl₂)⁻²], in data set [5] (0.95 mM solution in water), the “spin-lattice (T₁) relaxation value” was 107 ± 5 ms and the “spin-spin (T₂) relaxation value” is 27 ± 1 ms. Also, in data set [5], the “millimolar relaxivity for T₁” value is 9.84 mM⁻¹ s⁻¹ and the “millimolar relaxivity for T₂” value was 39.0 mM⁻¹ s⁻¹. Further, in data set [6] (90 µM final concentration), the T₂ value turned out to be 186 ± 7 ms and the T₁ value worked out at 240 ± 10 ms. In addition, in data set [6], the R₁ turned out to be 46.3 mM⁻¹ s⁻¹, the R₂ was found to be 59.7 mM⁻¹ s⁻¹, the “T₁ changed by (repeat measurement)” value is 2% and the “T₂ changed by (repeat measurement)” value amounted to 2%. In data set [6], the “T₂ relaxivity in plasma, fold greater than GdDTPA” value came out at 12.4 fold and the “T₁ relaxivity in plasma, fold greater than GdDTPA” value came to 9.65 fold.

With `N[C@@H](Cc1ccc(O)cc1)C(=O)O.N[C@@H](Cc1ccc(O)cc1)C(=O)O.O.O.[Cl-].[Cl-].[Mn+2]` [[Manganese(II)·(H₂O)₂·(L-tyrosine)₂]⁺²(Cl₂)⁻²], in data set [5] (0.68 mM solution in water), the “spin-lattice (T₁) relaxation value” amounted to 148 ± 1 ms and the “spin-spin (T₂) relaxation value” came out at 38 ± 1 ms. Moreover, in data set [5], the “millimolar relaxivity for T₁” value is 9.94 mM⁻¹ s⁻¹ and the “millimolar relaxivity for T₂” value was 38.7 mM⁻¹ s⁻¹. Moreover, in data set [6] (65 µM final concentration), the T₂ value was determined as 216 ± 2 ms and the T₁ value was 312 ± 20 ms. In addition, in data set [6], the R₁ was 49.3 mM⁻¹ s⁻¹, the R₂ came out at 71.6 mM⁻¹ s⁻¹, the “T₁ changed by (repeat measurement)” value is on record as 5% and the “T₂ changed by (repeat measurement)” value was 9%. Moreover, in data set [6], the “T₂ relaxivity in plasma, fold greater than GdDTPA” value is listed as 14.8 fold and the “T₁ relaxivity in plasma, fold greater than GdDTPA” value came out at 10.3 fold.

For the compound Manganese chloride [MnCl₂], in data set [3] (setting [10]), the “Plasma Dose, T₁ = 200” value was found to be 0.01.

In the case of MnEDTA [reference compound], in data set [2], the LD₅₀ is 5.0 and the “Safety Factor” value stood at 38. In addition, the “Plasma Dose, T₁ = 200” value in data set [3] (setting [10]) is recorded as 0.13.
